Results on three compounds are retold here after ChEMBL document CHEMBL1150912, “A new taxane diterpenoid from Taxus mairei” (J Nat Prod, 1998).

The structures appear in SMILES notation. Converted amounts (≈) assume the structure as drawn. Starred links: 1 amine or outer side, 2 acyl side, 3 side chain; linkers in the order of their positions; H or OH if unused. Positions of bridges follow the written chain, without caps; N, C: chain ends. Non-standard residues stand in square brackets, D forms with d. Residues, ends and D or L forms follow the SMILES beside them. Chains are numbered I, II in the order given. Actinocin(1to9) = Cc1c2oc3c(C)ccc(C(=O)[*:2])c3nc-2c(C(=O)[*:1])c(N)c1=O; NMeV = CN[C@H](C(=O)O)C(C)C; Sar = CNCC(=O)O

The nature of test [1]: Cytotoxicity against human Hep3B cells after 3 days by methylene blue assay. The class given is functional, cell-based, Hep 3B2. The settings on record: 72 h.
A further test deals with HeLa. The experiment in a line: Cytotoxicity against human HeLa cells after 3 days by methylene blue assay. In kind it is functional, cell-based. The settings on record: 72 h.

In the case of `Cc1c2oc3c(C)ccc(C(=O)N[C@@H]4C(=O)N[C@H](C(C)C)C(=O)N5CCC[C@H]5C(=O)N(C)CC(=O)N(C)[C@@H](C(C)C)C(=O)O[C@@H]4C)c3nc-2c(C(=O)N[C@@H]2C(=O)N[C@H](C(C)C)C(=O)N3CCC[C@H]3C(=O)N(C)CC(=O)N(C)[C@@H](C(C)C)C(=O)O[C@@H]2C)c(N)c1=O` [DACTINOMYCIN] (I: T[dV]P[Sar][NMeV] / II: T[dV]P[Sar][NMeV]; ester I:1-I:C, II:1-II:C; linker I:N-II:N via Actinocin(1to9)), the IC50 (in test [1]; with HeLa) was 0.01 µg/mL (≈ 0.00797 µM) in each case.
For the compound `CO[C@@]12[C@H](COC(N)=O)C3=C(C(=O)C(C)=C(N)C3=O)N1C[C@@H]1N[C@@H]12` [MITOMYCIN], the IC50 (in test [1]; in the test with HeLa) was 0.01 µg/mL (≈ 0.0299 µM) in each case.
On to `CC(=O)O[C@H]1[C@@H]2[C@]3(OC(C)=O)CO[C@@H]3C[C@H](O)[C@@]2(C)[C@@H](OC(=O)c2ccccc2)[C@H](O)C2=C(C)[C@@H](O)C[C@]21C(C)(C)O` [TAXUMAIROL K], for which the values for the IC50 (in test [1]; in the test on HeLa) were 40 µg/mL (≈ 68 µM) and 9.2 µg/mL (≈ 15.6 µM), respectively.
